Data published in ChEMBL document CHEMBL2203267, “Synthesis, antioxidant and antimicrobial activity of novel vanillin derived piperidin-4-one oxime esters: preponderant role of the phenyl ester substituents on the piperidin-4-one oxime core” (Bioorg Med Chem Lett, 2012).

What was measured:
[1] = test system: Candida albicans; test: Antifungal activity against Candida albicans MTCC 3017 at 500 ug/mL after 72 hrs by well plate method; type: functional; conditions: MTCC 3017, 72 h, read-out: DIZ
[2] = test system: Candida albicans; test: Antifungal activity against Candida albicans MTCC 3017 at 1000 ug/mL after 72 hrs by well plate method; type: functional; conditions: MTCC 3017, 72 h, read-out: DIZ
[3] = Antifungal activity against Chrysosporium keratinophilum MTCC 2827 at 500 ug/mL after 72 hrs by well plate method; type: functional
[4] = Antifungal activity against Chrysosporium keratinophilum MTCC 2827 at 1000 ug/mL after 72 hrs by well plate method; type: functional
[5] = test system: Aspergillus flavus; test: Antifungal activity against Aspergillus flavus MTCC 3306 at 500 ug/mL after 72 hrs by well plate method; type: functional; conditions: MTCC 3306, 72 h, read-out: DIZ
[6] = test system: Aspergillus flavus; test: Antifungal activity against Aspergillus flavus MTCC 3306 at 1000 ug/mL after 72 hrs by well plate method; type: functional; conditions: MTCC 3306, 72 h, read-out: DIZ
[7] = test system: Pseudomonas aeruginosa; test: Antibacterial activity against Pseudomonas aeruginosa ATCC 27853 at 1000 ug/mL after 24 hrs by well plate method; type: functional; conditions: ATCC 27853, 24 h, read-out: DIZ
[8] = test system: Staphylococcus aureus; test: Antibacterial activity against Staphylococcus aureus ATCC 25923 at 500 ug/mL after 24 hrs by well plate method; type: functional; conditions: ATCC 25923, 24 h, read-out: DIZ
[9] = test system: Staphylococcus aureus; test: Antibacterial activity against Staphylococcus aureus ATCC 25923 at 1000 ug/mL after 24 hrs by well plate method; type: functional; conditions: ATCC 25923, 24 h, read-out: DIZ
[10] = test system: Escherichia coli; test: Antibacterial activity against Escherichia coli ATCC 25922 at 500 ug/mL after 24 hrs by well plate method; type: functional; conditions: ATCC 25922, 24 h, read-out: DIZ
[11] = test system: Escherichia coli; test: Antibacterial activity against Escherichia coli ATCC 25922 at 1000 ug/mL after 24 hrs by well plate method; type: functional; conditions: ATCC 25922, 24 h, read-out: DIZ
[12] = test system: Pseudomonas aeruginosa; test: Antibacterial activity against Pseudomonas aeruginosa ATCC 27853 at 500 ug/mL after 24 hrs by well plate method; type: functional; conditions: ATCC 27853, 24 h, read-out: DIZ
[13] = Antioxidant activity assessed as ABTS+ radical scavenging activity after 30 mins by UV-vis spectrophotometric analysis; type: functional
[14] = test system: Liver microsomes; test: Antioxidant activity in Wistar rat liver microsomes assessed as inhibition of lipid peroxidation after 60 mins by UV-vis spectrophotometric analysis; type: functional, Microsome
[15] = test system: Radical scavenging activity; test: Antioxidant activity assessed as DPPH radical scavenging activity after 20 mins by UV-vis spectrophotometric analysis; type: functional

## OC(Cn1cncn1)(Cn1cncn1)c1ccc(F)cc1F [FLUCONAZOLE]
[1]
  zone of inhibition at 500 µg/mL: 20 mm
[2]
  zone of inhibition at 1000 µg/mL: 22 mm
[3]
  inhibition zone (IZ): 16 mm
[4]
  inhibition zone (IZ): 17 mm
[5]
  zone of inhibition at 500 µg/mL: 12 mm
[6]
  zone of inhibition at 1000 µg/mL: 14 mm

## CN[C@@H]1[C@H](O[C@H]2[C@H](O[C@H]3[C@H](O)[C@@H](O)[C@H](N=C(N)N)[C@@H](O)[C@@H]3N=C(N)N)O[C@@H](C)[C@]2(O)C=O)O[C@@H](CO)[C@H](O)[C@H]1O [STREPTOMYCIN]
[7]
  zone of inhibition at 1000 µg/mL: 16 mm
[8]
  zone of inhibition at 500 µg/mL: 12 mm
[9]
  zone of inhibition at 1000 µg/mL: 15 mm
[10]
  zone of inhibition at 500 µg/mL: 12 mm
[11]
  zone of inhibition at 1000 µg/mL: 18 mm
[12]
  zone of inhibition at 500 µg/mL: 13 mm

## COc1ccc(C(=O)ON=C2CC(c3ccc(O)c(OC)c3)N(C)C(c3ccc(O)c(OC)c3)C2)c(OC)c1 (configuration not stated)
[7]
  zone of inhibition at 1000 µg/mL: 6 mm
[8]
  zone of inhibition at 500 µg/mL: 3 mm
[9]
  zone of inhibition at 1000 µg/mL: 5 mm
[10]
  zone of inhibition at 500 µg/mL: 4 mm
[11]
  zone of inhibition at 1000 µg/mL: 6 mm
[13]
  IC50: 41 µM
[14]
  IC50: 52 µM
[15]
  IC50: 32 µM
[1]
  zone of inhibition at 500 µg/mL: 4 mm
[2]
  zone of inhibition at 1000 µg/mL: 6 mm
[3]
  inhibition zone (IZ): 4 mm
[4]
  inhibition zone (IZ): 5 mm
[5]
  zone of inhibition at 500 µg/mL: 4 mm
[6]
  zone of inhibition at 1000 µg/mL: 5 mm
[12]
  zone of inhibition at 500 µg/mL: 6 mm

## COc1ccc(C(=O)ON=C2CC(c3ccc(O)c(OC)c3)N(C)C(c3ccc(O)c(OC)c3)C2)cc1 (configuration not stated)
[7]
  zone of inhibition at 1000 µg/mL: 4 mm
[8]
  zone of inhibition at 500 µg/mL: 2 mm
[9]
  zone of inhibition at 1000 µg/mL: 4 mm
[10]
  zone of inhibition at 500 µg/mL: 2 mm
[11]
  zone of inhibition at 1000 µg/mL: 3 mm
[13]
  IC50: 33 µM
[14]
  IC50: 40 µM
[15]
  IC50: 28 µM
[1]
  zone of inhibition at 500 µg/mL: 5 mm
[2]
  zone of inhibition at 1000 µg/mL: 7 mm
[3]
  inhibition zone (IZ): 4 mm
[4]
  inhibition zone (IZ): 4 mm
[5]
  zone of inhibition at 500 µg/mL: 5 mm
[6]
  zone of inhibition at 1000 µg/mL: 6 mm
[12]
  zone of inhibition at 500 µg/mL: 3 mm

## COc1cc(C2CC(=NO)CC(c3ccc(O)c(OC)c3)N2C)ccc1O (configuration not stated)
[7]
  zone of inhibition at 1000 µg/mL: 1 mm
[8]
  zone of inhibition at 500 µg/mL: 0 mm
[9]
  zone of inhibition at 1000 µg/mL: 1 mm
[10]
  zone of inhibition at 500 µg/mL: 0 mm
[11]
  zone of inhibition at 1000 µg/mL: 1 mm
[13]
  IC50: 158 µM
[14]
  IC50: 167 µM
[15]
  IC50: 144 µM
[1]
  zone of inhibition at 500 µg/mL: 0 mm
[2]
  zone of inhibition at 1000 µg/mL: 1 mm
[3]
  inhibition zone (IZ): 1 mm
[4]
  inhibition zone (IZ): 1 mm
[5]
  zone of inhibition at 500 µg/mL: 0 mm
[6]
  zone of inhibition at 1000 µg/mL: 1 mm
[12]
  zone of inhibition at 500 µg/mL: 0 mm

## COc1cc(C2CC(=NOC(=O)c3cccc(O)c3)CC(c3ccc(O)c(OC)c3)N2C)ccc1O (configuration not stated)
[7]
  zone of inhibition at 1000 µg/mL: 5 mm
[8]
  zone of inhibition at 500 µg/mL: 5 mm
[9]
  zone of inhibition at 1000 µg/mL: 7 mm
[10]
  zone of inhibition at 500 µg/mL: 6 mm
[11]
  zone of inhibition at 1000 µg/mL: 7 mm
[13]
  IC50: 16.5 µM
[14]
  IC50: 25.3 µM
[15]
  IC50: 15.6 µM
[1]
  zone of inhibition at 500 µg/mL: 1 mm
[2]
  zone of inhibition at 1000 µg/mL: 3 mm
[3]
  inhibition zone (IZ): 1 mm
[4]
  inhibition zone (IZ): 2 mm
[5]
  zone of inhibition at 500 µg/mL: 1 mm
[6]
  zone of inhibition at 1000 µg/mL: 2 mm
[12]
  zone of inhibition at 500 µg/mL: 3 mm

## COc1cc(C2CC(=NOC(=O)c3ccccc3)CC(c3ccc(O)c(OC)c3)N2C)ccc1O (configuration not stated)
[7]
  zone of inhibition at 1000 µg/mL: 2 mm
[8]
  zone of inhibition at 500 µg/mL: 3 mm
[9]
  zone of inhibition at 1000 µg/mL: 4 mm
[10]
  zone of inhibition at 500 µg/mL: 2 mm
[11]
  zone of inhibition at 1000 µg/mL: 3 mm
[13]
  IC50: 156 µM
[14]
  IC50: 165 µM
[15]
  IC50: 141 µM
[1]
  zone of inhibition at 500 µg/mL: 2 mm
[2]
  zone of inhibition at 1000 µg/mL: 3 mm
[3]
  inhibition zone (IZ): 2 mm
[4]
  inhibition zone (IZ): 3 mm
[5]
  zone of inhibition at 500 µg/mL: 1 mm
[6]
  zone of inhibition at 1000 µg/mL: 2 mm
[12]
  zone of inhibition at 500 µg/mL: 1 mm

## COc1cc(C2CC(=NOC(=O)c3ccc([N+](=O)[O-])cc3)CC(c3ccc(O)c(OC)c3)N2C)ccc1O (configuration not stated)
[7]
  zone of inhibition at 1000 µg/mL: 8 mm
[8]
  zone of inhibition at 500 µg/mL: 5 mm
[9]
  zone of inhibition at 1000 µg/mL: 8 mm
[10]
  zone of inhibition at 500 µg/mL: 4 mm
[11]
  zone of inhibition at 1000 µg/mL: 8 mm
[13]
  IC50: 79 µM
[14]
  IC50: 82 µM
[15]
  IC50: 76 µM
[1]
  zone of inhibition at 500 µg/mL: 7 mm
[2]
  zone of inhibition at 1000 µg/mL: 6 mm
[3]
  inhibition zone (IZ): 4 mm
[4]
  inhibition zone (IZ): 5 mm
[5]
  zone of inhibition at 500 µg/mL: 3 mm
[6]
  zone of inhibition at 1000 µg/mL: 4 mm
[12]
  zone of inhibition at 500 µg/mL: 5 mm
